Experimental data taken from patent publication US8507509B2, “Saturated and insaturated bi- or tricyclic aryloxyacetamine derivatives and their use as fungicides” (Syngenta Crop Protection LLC, priority 2007, dated 2013).

Tests used:
Plasmopara viticola = Plasmopara viticola (downy mildew of grapevine), grapevine leaf disk assay, preventive; format: in vivo; conditions: foliar, 168 h, 200 ppm, grapevine leaf disks, assessed seven days after inoculation, read-out: control of fungal infection, Plasmopara viticola
Phytophthora infestans = test: whole plant or invertebrate; format: in vivo; conditions: in Solanum lycopersicum, foliar, 96 h, read-out: control of fungal infection, Phytophthora infestans
[1] = tested on: Erysiphe graminis f.sp. tritici; test: Erysiphe graminis f.sp. tritici (wheat powdery mildew), wheat leaf segment assay, preventive; format: in vivo; conditions: Blumeria graminis, foliar, 96 h; 200 ppm; wheat leaf segments; assessed four days after inoculation; read-out: control of fungal infection, Etysiphe graminis f.sp. tritici
Pyricularia oryzae = test: whole plant or invertebrate; format: in vivo; conditions: foliar, 96 h, read-out: control of fungal infection, Pyricularia oryzae
Fusarium culmorum = Fusarium culmorum (root rot), liquid culture growth inhibition in nutrient broth; format: cell-based; conditions: PDB broth, 24 C, inhibition of growth determined photometrically after 48 hrs, read-out: control of fungal infection, Fusarium culmorum
How it was run: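 Fusarium culmorum conidia from cryogenic storage were mixed into potato dextrose broth and added to compound pre-dispensed from DMSO (diluted in 0.025% Tween20). Incubated at 24 C in the dark; growth inhibition read photometrically after 48 hrs.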

Pythium ultimum = Pythium ultimum (Damping off), liquid culture growth inhibition in potato dextrose broth; format: cell-based; conditions: Globisporangium ultimum; 20 ppm; potato dextrose broth, 24° C.; inhibition of growth determined photometrically after 48 hours; read-out: control of fungal infection, Pythium ultimum
[2] = tested on: Puccinia recondita f.sp. tritici; test: Puccinia recondita f.sp. tritici (wheat brown rust), wheat leaf segment assay, preventive; format: in vivo; conditions: foliar, 216 h, 200 ppm, wheat leaf segments, assessed nine days after inoculation, read-out: control of fungal infection, Puccinia recondite f.sp. tritici
Septoria nodorum = Septoria nodorum (wheat glume blotch), wheat leaf segment assay, preventive; format: in vivo; conditions: Parastagonospora nodorum, foliar, 96 h; 200 ppm; wheat leaf segments; assessed four days after inoculation; read-out: control of fungal infection, Septoria nodorum
Septoria tritici = Septoria tritici (leaf blotch), liquid culture growth inhibition in nutrient broth; format: cell-based; conditions: Zymoseptoria tritici; 200 ppm; PDB broth, 24 C; inhibition of growth determined photometrically after 72 hrs; read-out: control of fungal infection, Septoria tritici

CSC(Oc1cc(C)c2ncc(Br)cc2c1)C(=O)NC(C)(C)C=NO (centres unmarked) [Compound No. 31, 2-(3-Bromo-8-methyl-quinolin-6-yloxy)-N-(2-hydroxyimino-1,1-dimethyl-ethyl)-2-methylsulfanyl-acetamide]
≥ 60%: pest or weed control at 200 ppm (Plasmopara viticola) | pest or weed control at 200 ppm (Phytophthora infestans) | pest or weed control at 200 ppm [1] | pest or weed control at 200 ppm (Pyricularia oryzae) | inhibition of growth at 200 ppm (Fusarium culmorum) | inhibition of growth at 20 ppm (Pythium ultimum)

C#Cc1cnc2ccc(OC(SC)C(=O)NC(C)(C)C=NOCC)cc2c1 (single isomer, unassigned) [Compound No. 119, N-(2-Ethoxyimino-1,1-dimethyl-ethyl)-2-(3-ethynyl-quinolin-6-yloxy)-2-methylsulfanyl-acetamide]
≥ 60%: pest or weed control at 200 ppm (Plasmopara viticola) | pest or weed control at 200 ppm (Phytophthora infestans) | pest or weed control at 200 ppm [1] | pest or weed control at 200 ppm (Pyricularia oryzae) | pest or weed control at 200 ppm [2] | pest or weed control at 200 ppm (Septoria nodorum) | inhibition of growth at 200 ppm (Septoria tritici) | inhibition of growth at 20 ppm (Pythium ultimum)

C#Cc1cnc2ccc(OC(SC)C(=O)NC(C)(C)C=NOCC=C)cc2c1 (centres unmarked) [Compound No. 120, N-(2-Allyloxyimino-1,1-dimethyl-ethyl)-2-(3-ethynyl-quinolin-6-yloxy)-2-methylsulfanyl-acetamide]
≥ 60%: pest or weed control at 200 ppm (Plasmopara viticola) | pest or weed control at 200 ppm (Phytophthora infestans) | pest or weed control at 200 ppm [1] | pest or weed control at 200 ppm (Pyricularia oryzae) | pest or weed control at 200 ppm [2] | pest or weed control at 200 ppm (Septoria nodorum) | inhibition of growth at 200 ppm (Septoria tritici) | inhibition of growth at 20 ppm (Pythium ultimum)

C#Cc1cnc2ccc(OC(SC)C(=O)NC(C)(C)C=NOCC)cc2c1 (centres unmarked) [Compound No. 118, N-(2-Ethoxyimino-1,1-dimethyl-ethyl)-2-(3-ethynyl-quinolin-6-yloxy)-2-methylsulfanyl-acetamide]
≥ 60%: pest or weed control at 200 ppm (Plasmopara viticola) | pest or weed control at 200 ppm (Phytophthora infestans) | pest or weed control at 200 ppm [1] | pest or weed control at 200 ppm (Pyricularia oryzae) | pest or weed control at 200 ppm [2] | pest or weed control at 200 ppm (Septoria nodorum) | inhibition of growth at 200 ppm (Septoria tritici) | inhibition of growth at 20 ppm (Pythium ultimum)

C#Cc1cnc2c(Cl)cc(OC(SC)C(=O)NC(C)(C)C=NOCC=C)cc2c1 (centres unmarked) [Compound No. 117, N-(2-Allyloxyimino-1,1-dimethyl-ethyl)-2-(8-chloro-3-ethynyl-quinolin-6-yloxy)-2-methylsulfanyl-acetamide]
≥ 60%: pest or weed control at 200 ppm (Plasmopara viticola) | pest or weed control at 200 ppm (Phytophthora infestans) | pest or weed control at 200 ppm [1] | pest or weed control at 200 ppm (Pyricularia oryzae) | pest or weed control at 200 ppm [2] | pest or weed control at 200 ppm (Septoria nodorum) | inhibition of growth at 200 ppm (Septoria tritici) | inhibition of growth at 20 ppm (Pythium ultimum)
